# From PMC11149917, “Translational and Therapeutic Evaluation of RAS-GTP Inhibition by RMC-6236 in RAS-Driven Cancers” (Cancer Discovery, 2024)
# Like-named read-outs stand apart in the source and are kept apart here.
# Assay: Mouse blood and tissue PK (LC/MS-MS)
# Format: in vivo
# Conditions: mouse; for half-life: po, read-out: Tumor t1/2 (converted)
# Procedure: For single-dose PKPD study, mice were randomized and assigned into groups (n = 3/dose/time point). […] Blood and tissues, including the tumor, brain, colon, ear skin, and muscle, were harvested at indicated time points. […] The whole blood, tumor, brain, colon, and ear skin concentrations of RMC-6236 were determined using liquid chromatography–tandem mass spectrometry (LC/MS-MS) methods. […] After thorough mixing and centrifugation, the supernatant was diluted with water or directly analyzed on a Sciex 5500 or Sciex 6500+ triple quadrupole mass spectrometer equipped with an ACQUITY or Shimadzu UPLC system. […] Bioanalysis on blood and tissue samples from xenograft models was run at Pharmaron and Wuxi AppTec. Concentrations reported as below the quantification limit were treated as zero for PK analysis. PK parameters were calculated by noncompartmental analysis of the concentration–time profiles using Phoenix WinNonLin (version 8.3 Certara). Apparent terminal elimination half-life (t1/2) values were calculated as ln(2)/k, where k represents the terminal elimination rate constant. Area under the concentration–time curve (AUC) values were estimated using a linear trapezoidal method. AUClast values were calculated from the dosing time to the last quantifiable concentration. Maximum concentration (Cmax) was recorded as observed.
# [1] = whole blood, oral, 10 mg/kg, Model Validation Dataset, 10mg/kg_study6, read-out: Blood Concentration
# [2] = whole blood, oral, 25 mg/kg, Model Development Dataset, 25mg/kg_study8, read-out: Blood Concentration
# [3] = whole blood, oral, 25 mg/kg, Model Development Dataset, 25mg/kg_study8r (doses every 24 h, 0-[…])
# [4] = whole blood, oral, 25 mg/kg, Model Validation Dataset, 25mg/kg_study6, read-out: Blood Concentration
# [5] = whole blood, oral, 40 mg/kg, Model Development Dataset, 40mg/kg_study8, read-out: Blood Concentration
# [6] = whole blood, oral, 40 mg/kg, Model Development Dataset, 40mg/kg_study8r (doses every 24 h, 0-[…])
# [7] = whole blood, oral, 50 mg/kg, Model Validation Dataset, 50mg/kg_study6, read-out: Blood Concentration
compound,measurement,setting,value
CCn1c(-c2cc(N3CCN(C)CC3)cnc2[C@H](C)OC)c2c3cc(ccc31)-c1csc(n1)C[C@H](NC(=O)[C@H]1C[C@@H]1C)C(=O)N1CCC[C@H](N1)C(=O)OCC(C)(C)C2 [RMC-6236],concentration at 24 h,"tumor, oral, 50 mg/kg, Model Validation Dataset, 50mg/kg_study6, 24 h, read-out: Tumor Concentration",2100 nM
same,concentration at 48 h,"tumor, oral, 50 mg/kg, Model Validation Dataset, 50mg/kg_study6, 48 h, read-out: Tumor Concentration",1240 nM
same,concentration at 72 h,"tumor, oral, 50 mg/kg, Model Validation Dataset, 50mg/kg_study6, 72 h",621 nM
same,concentration at 8 h,"tumor, oral, 50 mg/kg, NCI-H441 xenograft tumor, study NCI-H441#6, 50 mg/kg, 8h, read-out: RMC-6236 (nM) Tumor",4770 nM
same,concentration at 24 h,"tumor, oral, 50 mg/kg, NCI-H441 xenograft tumor, study NCI-H441#6, 50 mg/kg, 24h, read-out: RMC-6236 (nM) Tumor",1960 nM
same,concentration at 8 h,"tumor, oral, 100 mg/kg, KP-4, study KP-4 #4, 100 mg/kg, 8h, read-out: RMC-6236 (nM) Tumor",10200 nM
same,concentration at 24 h,"tumor, oral, 100 mg/kg, KP-4, study KP-4 #4, 100 mg/kg, 24h, read-out: RMC-6236 (nM) Tumor",7000 nM
same,concentration at 24 h,"tumor, oral, 100 mg/kg, NCI-H441 xenograft tumor, study NCI-H441#6, 100 mg/kg, 24h, read-out: RMC-6236 (nM) Tumor",3020 nM
same,concentration at 48 h,"tumor, oral, 100 mg/kg, NCI-H441 xenograft tumor, study NCI-H441#6, 100 mg/kg, 48h, read-out: RMC-6236 (nM) Tumor",2060 nM
same,half-life,"tumor, 3 mg/kg, NCI-H441 (3 mg/kg), single dose",17.1 h
same,half-life,"tumor, 25 mg/kg, HPAC (25 mg/kg), single dose",14 h
same,half-life,"tumor, 25 mg/kg, KP-4 (25 mg/kg), single dose",11.3 h
same,half-life,"tumor, 25 mg/kg, NCI-H358 (25 mg/kg), single dose",10.2 h
same,half-life,"tumor, 25 mg/kg, NCI-H441 (25 mg/kg), single dose",46.1 h
same,concentration at 0.5 h,"whole blood, oral, 10 mg/kg, Model Validation Dataset, 10mg/kg_study6",435 nM
same,concentration at 1 h,[1],642 nM
same,concentration at 2 h,[1],642 nM
same,concentration at 4 h,[1],441 nM
same,concentration at 8 h,"whole blood, oral, 10 mg/kg, Model Validation Dataset, 10mg/kg_study6, 8 h, read-out: Blood Concentration",309 nM
same,concentration at 24 h,"whole blood, oral, 10 mg/kg, Model Validation Dataset, 10mg/kg_study6, 24 h, read-out: Blood Concentration",3.91 nM
same,Cmax,"whole blood, oral, 10 mg/kg, Naïve Mice #1 (10 mg/kg), single dose",744 ng/mL
same,concentration at 0.5 h,"whole blood, oral, 25 mg/kg, Model Development Dataset, 25mg/kg_study8",806 nM
same,concentration at 1 h,[2],979 nM
same,concentration at 2 h,[2],1410 nM
same,concentration at 4 h,[2],1430 nM
same,concentration at 8 h,"whole blood, oral, 25 mg/kg, Model Development Dataset, 25mg/kg_study8, 8 h, read-out: Blood Concentration",802 nM
same,concentration at 24 h,"whole blood, oral, 25 mg/kg, Model Development Dataset, 25mg/kg_study8, 24 h, read-out: Blood Concentration",7.71 nM
same,concentration at 216.5 h,[3],1180 nM
same,concentration at 220 h,[3],849 nM
same,concentration at 240 h,"whole blood, oral, 25 mg/kg, Model Development Dataset, 25mg/kg_study8r (doses every 24 h, 0-[…]), read-out: Blood Concentration",5.4 nM
same,concentration at 0.5 h,"whole blood, oral, 25 mg/kg, Model Validation Dataset, 25mg/kg_study6",598 nM
same,concentration at 1 h,[4],885 nM
same,concentration at 2 h,[4],1540 nM
same,concentration at 4 h,[4],1140 nM
same,concentration at 8 h,"whole blood, oral, 25 mg/kg, Model Validation Dataset, 25mg/kg_study6, 8 h, read-out: Blood Concentration",755 nM
same,concentration at 24 h,"whole blood, oral, 25 mg/kg, Model Validation Dataset, 25mg/kg_study6, 24 h, read-out: Blood Concentration",15.6 nM
same,concentration at 0.5 h,"whole blood, oral, 40 mg/kg, Model Development Dataset, 40mg/kg_study8",1320 nM
same,concentration at 1 h,[5],1580 nM
same,concentration at 2 h,[5],2770 nM
same,concentration at 4 h,[5],1480 nM
same,concentration at 8 h,"whole blood, oral, 40 mg/kg, Model Development Dataset, 40mg/kg_study8, 8 h, read-out: Blood Concentration",1200 nM
same,concentration at 24 h,"whole blood, oral, 40 mg/kg, Model Development Dataset, 40mg/kg_study8, 24 h, read-out: Blood Concentration",8 nM
same,concentration at 216.5 h,[6],1760 nM
same,concentration at 220 h,[6],1550 nM
same,concentration at 240 h,"whole blood, oral, 40 mg/kg, Model Development Dataset, 40mg/kg_study8r (doses every 24 h, 0-[…]), read-out: Blood Concentration",7.54 nM
same,concentration at 0.5 h,"whole blood, oral, 50 mg/kg, Model Validation Dataset, 50mg/kg_study6",1420 nM
same,concentration at 1 h,[7],1820 nM
same,concentration at 2 h,[7],2770 nM
